# The OligoGym collection
# HELM strings list units from the 5' end as sugar, base in round brackets, then linkage (d deoxyribose, r ribose, m 2'-O-methyl, p phosphodiester). Strings are as the collection lists them; they lack the last nucleoside at the 3' end of the tested compound. [moe] = 2'-O-(2-methoxyethyl) (MOE); [sp] = phosphorothioate linkage; [m5C] = 5-methylcytosine
# Target: UBE3A-ATS
# Assay: mouse, dose not given
# Details: ASO
row,Substance,3 h FOB score
1,RNA1{[moe](G)[sp].[moe](A)p.[moe](G)p.[moe]([m5C])p.[moe](T)p.[moe](A)[sp].d(T)[sp].d([m5C])[sp].d(T)[sp].d(G)[sp].d(T)[sp].d(A)[sp].d([m5C])[sp].d(A)[sp].[moe](A)p.[moe](A)[sp].[moe](A)}$$$$ (last 3' nucleoside missing),4.7 score 0-7
2,RNA1{[moe](G)[sp].[moe](A)p.[moe](G)p.[moe]([m5C])p.[moe](T)p.[moe](A)p.d(T)[sp].d([m5C])[sp].d(T)[sp].d(G)[sp].d(T)[sp].d(A)[sp].d([m5C])[sp].d(A)[sp].d(A)[sp].d(A)[sp].[moe](A)p.[moe](T)[sp].[moe](G)}$$$$ (last 3' nucleoside missing),5.2 score 0-7
3,RNA1{[moe](G)[sp].[moe](A)p.[moe](G)p.[moe]([m5C])p.[moe](T)p.d(A)[sp].d(T)[sp].d([m5C])[sp].d(T)[sp].d(G)[sp].d(T)[sp].d(A)[sp].d([m5C])[sp].d(A)[sp].d(A)[sp].[moe](A)p.[moe](A)p.[moe](T)[sp].[moe](G)}$$$$ (last 3' nucleoside missing),6.7 score 0-7
4,RNA1{[moe](G)[sp].[moe](A)p.[moe](G)p.[moe]([m5C])p.d(T)[sp].d(A)[sp].d(T)[sp].d([m5C])[sp].d(T)[sp].d(G)[sp].d(T)[sp].d(A)[sp].d([m5C])[sp].d(A)[sp].[moe](A)p.[moe](A)p.[moe](A)p.[moe](T)[sp].[moe](G)}$$$$ (last 3' nucleoside missing),4.7 score 0-7
5,RNA1{[moe](G)[sp].[moe](A)p.[moe](T)p.[moe](A)p.[moe](G)p.d(G)[sp].d(G)[sp].d(T)[sp].d(T)[sp].d(T)[sp].d(A)[sp].d(G)[sp].d(G)[sp].d(T)[sp].d([m5C])[sp].[moe](A)p.[moe](A)p.[moe]([m5C])[sp].[moe]([m5C])}$$$$ (last 3' nucleoside missing),5 score 0-7
6,RNA1{[moe](G)[sp].[moe](A)p.[moe](T)p.[moe](T)p.[moe](A)p.d(T)[sp].d([m5C])[sp].d(T)[sp].d([m5C])[sp].d(A)[sp].d(G)[sp].d(A)[sp].d([m5C])[sp].d(A)[sp].d(T)[sp].[moe](G)p.[moe]([m5C])p.[moe]([m5C])[sp].[moe](A)}$$$$ (last 3' nucleoside missing),3.2 score 0-7
7,RNA1{[moe](G)[sp].[moe](A)p.[moe](T)p.[moe](T)p.[moe](G)p.d(A)[sp].d(T)[sp].d([m5C])[sp].d(A)[sp].d(T)[sp].d(G)[sp].d(T)[sp].d(T)[sp].d(A)[sp].d(T)[sp].[moe](G)p.[moe]([m5C])p.[moe]([m5C])[sp].[moe]([m5C])}$$$$ (last 3' nucleoside missing),2 score 0-7
8,RNA1{[moe](G)[sp].[moe](A)p.[moe](T)p.[moe](T)p.[moe](G)p.d(A)[sp].d([m5C])[sp].d(T)[sp].d(A)[sp].d([m5C])[sp].d(T)[sp].d(T)[sp].d([m5C])[sp].d(A)[sp].d(A)[sp].[moe]([m5C])p.[moe]([m5C])p.[moe](T)[sp].[moe](G)}$$$$ (last 3' nucleoside missing),1.3 score 0-7
9,RNA1{[moe](G)[sp].[moe](A)p.[moe](T)p.[moe](T)p.[moe](T)p.d(T)[sp].d(A)[sp].d(T)[sp].d(T)[sp].d(G)[sp].d(G)[sp].d(T)[sp].d([m5C])[sp].d(A)[sp].d(T)[sp].[moe]([m5C])p.[moe](T)p.[moe]([m5C])[sp].[moe](G)}$$$$ (last 3' nucleoside missing),6.8 score 0-7
10,RNA1{[moe](G)[sp].[moe](A)p.[moe](T)p.[moe](T)p.[moe](T)p.d([m5C])[sp].d([m5C])[sp].d(T)[sp].d(T)[sp].d(A)[sp].d([m5C])[sp].d(T)[sp].d(G)[sp].d(A)[sp].d(G)[sp].[moe](T)p.[moe](G)p.[moe](A)[sp].[moe](G)}$$$$ (last 3' nucleoside missing),1 score 0-7
11,RNA1{[moe](G)[sp].[moe](A)p.[moe](T)p.[moe](T)p.[moe]([m5C])p.d(A)[sp].d(A)[sp].d(T)[sp].d(A)[sp].d(G)[sp].d(T)[sp].d(G)[sp].d(T)[sp].d(A)[sp].d(G)[sp].[moe](G)p.[moe](T)p.[moe](G)[sp].[moe](A)}$$$$ (last 3' nucleoside missing),3.3 score 0-7
12,RNA1{[moe](G)[sp].[moe](A)p.[moe](T)p.[moe]([m5C])[sp].d(A)[sp].d([m5C])[sp].d(A)[sp].d(T)[sp].d(T)[sp].d(A)[sp].d([m5C])[sp].d([m5C])[sp].[moe]([m5C])p.[moe](A)p.[moe](T)p.[moe]([m5C])[sp].[moe]([m5C])}$$$$ (last 3' nucleoside missing),0 score 0-7
13,RNA1{[moe](G)[sp].[moe](A)p.[moe](T)p.[moe]([m5C])p.[moe](A)[sp].d([m5C])[sp].d(A)[sp].d(T)[sp].d(T)[sp].d(A)[sp].d([m5C])[sp].d([m5C])[sp].d([m5C])[sp].[moe](A)p.[moe](T)p.[moe]([m5C])[sp].[moe]([m5C])}$$$$ (last 3' nucleoside missing),2 score 0-7
14,RNA1{[moe](G)[sp].[moe](A)p.[moe](T)p.[moe]([m5C])p.[moe](A)p.[moe]([m5C])[sp].d(A)[sp].d(T)[sp].d(T)[sp].d(A)[sp].d([m5C])[sp].d([m5C])[sp].d([m5C])[sp].d(A)[sp].[moe](T)p.[moe]([m5C])[sp].[moe]([m5C])}$$$$ (last 3' nucleoside missing),0 score 0-7
15,RNA1{[moe](G)[sp].[moe](A)p.[moe](T)p.[moe]([m5C])p.[moe](A)p.[moe]([m5C])p.d(A)[sp].d(T)[sp].d(T)[sp].d(A)[sp].d([m5C])[sp].d([m5C])[sp].d([m5C])[sp].d(A)[sp].d(T)[sp].d([m5C])[sp].[moe]([m5C])p.[moe](G)[sp].[moe](T)}$$$$ (last 3' nucleoside missing),0 score 0-7
16,RNA1{[moe](G)[sp].[moe](A)p.[moe](T)p.[moe]([m5C])p.[moe](A)p.d(T)[sp].d(G)[sp].d(T)[sp].d(G)[sp].d([m5C])[sp].d(A)[sp].d(T)[sp].d(A)[sp].d([m5C])[sp].d([m5C])[sp].[moe]([m5C])p.[moe](A)p.[moe](G)[sp].[moe](G)}$$$$ (last 3' nucleoside missing),5.7 score 0-7
17,RNA1{[moe](G)[sp].[moe](A)p.[moe](T)p.[moe]([m5C])p.[moe](A)p.d([m5C])[sp].d(A)[sp].d(T)[sp].d(T)[sp].d(A)[sp].d([m5C])[sp].d([m5C])[sp].d([m5C])[sp].d(A)[sp].d(T)[sp].[moe]([m5C])p.[moe]([m5C])p.[moe](G)[sp].[moe](T)}$$$$ (last 3' nucleoside missing),0 score 0-7
18,RNA1{[moe](G)[sp].[moe](A)p.[moe](T)p.[moe]([m5C])p.[moe](T)p.d(T)[sp].d(G)[sp].d(G)[sp].d(T)[sp].d(A)[sp].d(A)[sp].d(G)[sp].d(G)[sp].d([m5C])[sp].d(A)[sp].[moe](G)p.[moe]([m5C])p.[moe](T)[sp].[moe]([m5C])}$$$$ (last 3' nucleoside missing),6.8 score 0-7
19,RNA1{[moe](G)[sp].[moe](A)p.[moe](T)p.[moe]([m5C])p.d(A)[sp].d([m5C])[sp].d(A)[sp].d(T)[sp].d(T)[sp].d(A)[sp].d([m5C])[sp].d([m5C])[sp].d([m5C])[sp].d(A)[sp].[moe](T)p.[moe]([m5C])p.[moe]([m5C])p.[moe](G)[sp].[moe](T)}$$$$ (last 3' nucleoside missing),0 score 0-7
20,RNA1{[moe](G)[sp].[moe](A)p.[moe]([m5C])p.[moe](T)p.[moe](A)p.d(T)[sp].d([m5C])[sp].d(T)[sp].d([m5C])[sp].d(A)[sp].d(G)[sp].d([m5C])[sp].d(A)[sp].d([m5C])[sp].d(T)[sp].[moe](A)p.[moe](G)p.[moe](G)[sp].[moe](G)}$$$$ (last 3' nucleoside missing),2 score 0-7
21,RNA1{[moe](G)[sp].[moe](A)p.[moe]([m5C])p.[moe](T)p.[moe](A)p.d([m5C])[sp].d(T)[sp].d(T)[sp].d([m5C])[sp].d(A)[sp].d(A)[sp].d([m5C])[sp].d([m5C])[sp].d(T)[sp].d(G)[sp].[moe](A)p.[moe](T)p.[moe](A)[sp].[moe]([m5C])}$$$$ (last 3' nucleoside missing),2 score 0-7
22,RNA1{[moe](G)[sp].[moe](G)p.[moe](A)p.[moe](A)p.[moe](G)p.d(G)[sp].d(A)[sp].d(A)[sp].d(A)[sp].d([m5C])[sp].d(A)[sp].d([m5C])[sp].d(A)[sp].d([m5C])[sp].d(A)[sp].[moe](T)p.[moe](A)p.[moe](A)[sp].[moe](T)}$$$$ (last 3' nucleoside missing),0.5 score 0-7
23,RNA1{[moe](G)[sp].[moe](G)p.[moe](A)p.[moe](G)p.[moe](A)p.d([m5C])[sp].d(A)[sp].d(A)[sp].d(T)[sp].d([m5C])[sp].d(T)[sp].d(A)[sp].d(G)[sp].d(T)[sp].d(T)[sp].[moe](A)p.[moe](G)p.[moe](A)[sp].[moe]([m5C])}$$$$ (last 3' nucleoside missing),4 score 0-7
24,RNA1{[moe](G)[sp].[moe](G)p.[moe](A)p.[moe](G)p.[moe](G)p.d(G)[sp].d(A)[sp].d(G)[sp].d(G)[sp].d(A)[sp].d(A)[sp].d(A)[sp].d(A)[sp].d(T)[sp].d(T)[sp].[moe](A)p.[moe](T)p.[moe](T)[sp].[moe](T)}$$$$ (last 3' nucleoside missing),0.5 score 0-7
25,RNA1{[moe](G)[sp].[moe](G)p.[moe](A)p.[moe](T)p.[moe](G)p.d(G)[sp].d(T)[sp].d(G)[sp].d(T)[sp].d(G)[sp].d(T)[sp].d(A)[sp].d(T)[sp].d(G)[sp].d(T)[sp].[moe](T)p.[moe](A)p.[moe](T)[sp].[moe](G)}$$$$ (last 3' nucleoside missing),4.7 score 0-7
26,RNA1{[moe](G)[sp].[moe](G)p.[moe](A)p.[moe](T)p.[moe](G)p.d(G)[sp].d(T)[sp].d(T)[sp].d(G)[sp].d(A)[sp].d([m5C])[sp].d([m5C])[sp].d(T)[sp].d([m5C])[sp].d(A)[sp].[moe](A)p.[moe](A)p.[moe](A)[sp].[moe](T)}$$$$ (last 3' nucleoside missing),3.8 score 0-7
